Experimental data reported in patent US20230200216A1, “ORGANIC LIGHT-EMITTING DEVICE” (CANON KABUSHIKI KAISHA, priority 2021, published 2023).

Experiment: Sublimability: decomposition temperature (TG/DTA, 5% mass loss) minus sublimation temperature
Format: physicochemical
Conditions: 5% mass reduction, sublimation: Ar flow, vacuum 1×10^−1 Pa
Description: Table 4 presents the results of comparisons in sublimability between exemplified compound RD21 serving as the first guest and compound 1 and between exemplary compound RD30 serving as the first guest and compound 2. As an evaluation of sublimability, comparisons are made of the temperature difference between the sublimation temperature and the decomposition temperature (ΔT=decomposition temperature−sublimation temperature). A larger temperature difference can be said to indicate higher sublimability. With regard to the decomposition temperature, TG/DTA measurement was performed, and the temperature at which a reduction in mass reached 5% was defined as the decomposition temperature. With regard to the sublimation temperature, the sublimation purification was performed by slowly increasing the temperature while allowing Ar to flow at a degree of vacuum of 1×10^−1 Pa, and the temperature at which a sufficient sublimation rate was reached was defined as the sublimation temperature.

| Compound | ΔT = decomposition temperature − sublimation temperature [°C] |
| --- | --- |
| CC(C)(C)c1cc2cc(C(C)(C)C)cc3c4ccc5c6cc7c(-c8ccccc8)c8c9ccc%10c%11cc(C(C)(C)C)cc%12cc(C(C)(C)C)cc(c%13ccc(c8c(-c8ccccc8)c7cc6c6ccc(c(c1)c23)c4c65)c9c%13%10)c%12%11 [Compound 1] | 40 |
| c1ccc(-c2ccc(-c3ccccc3)c3c2-c2ccc4c5ccc6c7c(ccc(c8ccc-3c2c48)c75)-c2c(-c3ccc4ccccc4c3)ccc(-c3ccc4ccccc4c3)c2-6)cc1 [Compound 2] | 60 |
| c1ccc(-c2ccccc2-c2c3cc4c(cc3c(-c3ccccc3)c3c5ccc6c7cccc8cccc(c9ccc(c23)c5c69)c87)c2ccc3c5cccc6cccc(c7ccc4c2c37)c65)cc1 [Exemplified compound RD21] | 100 |
| c1ccc(-c2ccccc2-c2ccc(-c3ccccc3-c3ccccc3)c3c2-c2ccc4c5ccc6c7c(ccc(c8ccc-3c2c48)c75)-c2c(-c3ccccc3)ccc(-c3ccccc3)c2-6)cc1 [Exemplified compound RD30] | 130 |
